Our source for the IC50 values is patent US10351530B2, “Arylcyclohexyl pyrazoles as NRF2 regulators” (GlaxoSmithKline Intellectual Property Development Limited, priority 2015, dated 2019).

By IC50 is commonly meant the point on the concentration scale where inhibition reaches its midpoint. The low end stands for greater potency in that assay, the high end for weaker potency in that assay.

One experiment deals with T1, NRF2/Keap1 (Homo sapiens, UniProt Q14145).
T1 construct: full length NRF2 protein and full length Keap1 protein (Keap1 exists a dimer) are used
T1 sequence (Q14145 whole entry): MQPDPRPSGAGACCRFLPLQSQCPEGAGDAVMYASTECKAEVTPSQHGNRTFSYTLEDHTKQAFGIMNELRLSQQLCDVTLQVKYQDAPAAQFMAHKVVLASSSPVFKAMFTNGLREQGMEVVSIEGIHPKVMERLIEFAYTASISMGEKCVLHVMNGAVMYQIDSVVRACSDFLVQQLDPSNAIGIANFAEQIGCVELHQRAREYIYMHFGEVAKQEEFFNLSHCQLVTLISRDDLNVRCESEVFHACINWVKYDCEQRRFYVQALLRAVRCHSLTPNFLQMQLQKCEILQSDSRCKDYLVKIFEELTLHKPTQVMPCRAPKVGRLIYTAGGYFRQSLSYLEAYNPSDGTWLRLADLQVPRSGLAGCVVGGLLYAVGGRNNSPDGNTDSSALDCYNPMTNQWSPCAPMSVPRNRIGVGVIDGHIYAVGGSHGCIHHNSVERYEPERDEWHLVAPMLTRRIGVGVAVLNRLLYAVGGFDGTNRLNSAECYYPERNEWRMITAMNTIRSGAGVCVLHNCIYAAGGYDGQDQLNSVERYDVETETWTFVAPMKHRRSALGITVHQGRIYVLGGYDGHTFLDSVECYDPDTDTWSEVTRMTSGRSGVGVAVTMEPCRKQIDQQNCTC
Briefly: NRF2-Keap1 TR-FRET Low Protein Assay (full length NRF2 and full length Keap1). Type of experiment: binding. The following applies: low protein: 1.25 nM Keap1 FlagHis, 2.5 nM biotin-NRF2 added. The text has this:
In the NRF2-Keap1 TR-FRET (time-resolved fluorescence resonance energy transfer) low protein assay, full length NRF2 protein and full length Keap1 protein (Keap1 exists a dimer) are used. The assay detects a compound's ability to displace the binding of Keap1 FlagHis with biotinylated Avi-NRF2 protein. Biotin-NRF2 binds to streptavidin-europium (a component of the detection mix) and Keap1 FlagHis is recognized by anti-Flag APC (allophycocyanin) antibody (also a component of the detection mix). If binding occurs between the two proteins, there will be an energy transfer from the Eu+3 (donor) at 615 nm to the APC (acceptor) at 665 nm. A potential NRF2 inhibitor will cause a reduction in the TR-FRET signal by interfering with the binding of Keap1 to NRF2.
Ten nanoliters of 100× compound dose response curves (serial 3-fold dilutions) in DMSO are stamped using an Echo liquid handling system (Labcyte) into 384-well, low volume, black assay plates (Greiner, #784076), with DMSO in columns 6 and 18. An additional 90 nl DMSO is added to each well, to bring the total volume to 100 nl per well. The top concentration of compound is located in columns 1 and 13, with the serial dilutions going across the row. All reagents are diluted in assay buffer (50 mM Tris, pH 8.0, 5 mM MgCl2, 100 mM NaCl, 0.005% BSA, 1 mM DTT, and 2 mM CHAPS. The BSA, DTT, and CHAPS are added to the assay buffer on the day of assay. Using a Multidrop Combi (Thermo Electron Corporation) equipped with a metal tip dispenser, 5 ul of 1.25 nM Keap1 FlagHis protein is added to all wells of the compound plate, with the exception of the wells in column 18. Wells in column 18 receive 5 ul of assay buffer instead. Plates are centrifuged at 500 rpm for 1 minute, covered with a plate lid, and incubated at 37° C. for 2.25 hours. Plates are then removed from the incubator and allowed to cool to RT for 15 minutes. Five microliters of 2.5 nM biotin-NRF2 protein is then added to all wells of the plates and the plates are spun at 500 rpm for 1 minute, followed by incubating at 4° C. for 1.25 hours. The plates are then allowed to warm to RT for 15 minutes, followed by the addition of 10 ul of detection mix (1 nM Streptavidin Eu+ W1024 and 5 ug/ml mouse anti-DYKDDDDK IgG conjugated to SureLight APC antibody; both from Columbia Biosciences) to all wells. Plates are spun at 500 rpm for 1 minute, incubated for 1 hour at RT, and read on an Envision plate reader using a 320 nm excitation filter and 615 nm and 665 nm emission filters. Compound response (% inhibition) and potency (pIC50) are calculated based on the ratio of the two emissions (665 nm/615 nm) and then the transformed data is normalized against controls in the assay (control 1=1% DMSO in the presence of NRF2 and Keap1 protein and control 2=1% DMSO in the presence of only the NRF2 protein). Data analysis is handled using the software package Abase XE (Surrey, United Kingdom). The % inhibition values are calculated from the ratio (transformed) data by the equation: 100−(100*(compound response-average control 2)/(average control 1−average control 2)). For calculation of pIC50s, Abase XE uses a four parameter equation.
For orientation: TR-FRET usually uses a lanthanide donor and a delayed reading to cut background.

The target of another experiment is T2, Keap1/NRF2 (Homo sapiens, UniProt Q14145).
T2 construct: Keap1 (321-609) is diluted to 40 nM (2×) in 1× assay buffer
T2 sequence (Q14145 321-609): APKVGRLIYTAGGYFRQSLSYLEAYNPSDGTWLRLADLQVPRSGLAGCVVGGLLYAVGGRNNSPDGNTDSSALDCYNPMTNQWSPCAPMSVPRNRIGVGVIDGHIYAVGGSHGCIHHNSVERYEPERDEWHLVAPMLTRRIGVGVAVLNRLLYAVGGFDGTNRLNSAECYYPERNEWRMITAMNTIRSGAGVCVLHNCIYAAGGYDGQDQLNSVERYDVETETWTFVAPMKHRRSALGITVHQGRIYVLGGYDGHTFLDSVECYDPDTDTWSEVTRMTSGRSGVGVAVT
Briefly: NRF2-Keap1 FP Assay (Kelch domain (321-609) of Keap1, TAMRA-labeled NRF2 ETGE peptide). Type of experiment: binding. As to conditions: Keap1 (321-609) 20 nM, Tamra labeled peptide 8 nM. The method in brief:
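Fluorescence polarization competition: Keap1 Kelch (321-609) at 20 nM final and TAMRA-ETGE 16-mer peptide at 8 nM final with 3-fold compound dilutions, 1 h room temperature in Tris pH 8.0 buffer (NaCl, MgCl2, DTT, CHAPS, BSA). mP normalized to protein+peptide and peptide-alone controls; pIC50 by four-parameter fit.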

Molecules are shown by their SMILES.

With `CCCCC1CCCN1C(=O)C1CCCC(c2cccc(-n3ncc(C(=O)O)c3C3CC3)c2)C1` (racemic) [Example 8c, 1-{3-[3-(2-Butylpyrrolidine-1-carbonyl)cyclohexyl]phenyl}-5-cyclopropyl-1H-pyrazole-4-carboxylic Acid], the 50% inhibitory concentration (IC50) against NRF2/Keap1 and against Keap1/NRF2 was 10 to 100 nM each time.

Regarding `CC(C)CCC1CCCN1C(=O)C1CCCC(c2cccc(-n3ncc(C(=O)O)c3C3CC3)c2)C1` (racemic) [Example 11, 5-Cyclopropyl-1-(3-{3-[2-(3-methylbutyl)pyrrolidine-1-carbonyl]cyclohexyl}phenyl)-1H-pyrazole-4-carboxylic Acid], the half-maximal inhibitory concentration (IC50) at NRF2/Keap1 and on Keap1/NRF2 was 10 to 100 nM in each case.

For `O=C(O)c1cnn(-c2cccc(C3CCCC(C(=O)N4CCCC4C4CC4)C3)c2)c1C1CC1` (racemic) [Example 12, 5-cyclopropyl-1-{3-[3-(2-cyclopropylpyrrolidine-1-carbonyl)cyclohexyl]phenyl}-1H-pyrazole-4-carboxylic Acid], the 50% inhibitory concentration (IC50) against NRF2/Keap1 and against Keap1/NRF2 was 10 to 100 nM in each case.

Consider `CC1(C)CCc2cnn([C@@H]3CCC[C@@H](c4cccc(-n5ncc(C(=O)O)c5C5CC5)c4)C3)c21` (racemic) [Example 23, 5-Cyclopropyl-1-(3-(t-3-(6,6-dimethyl-5,6-dihydrocyclopenta[c]pyrazol-1(4H)-yl)cyclohexyl)phenyl)-1H-pyrazole-4-carboxylic Acid], for which the IC50 on NRF2/Keap1 and against Keap1/NRF2 was 1000 to 10000 nM in each case.

With `CCOC[C@@H]1CCCN1C(=O)C1CCCC(c2cccc(-n3ncc(C(=O)O)c3C3CC3)c2)C1` (single isomer, unassigned) [Example 18g], the IC50 against NRF2/Keap1 was less than 10 nM; against Keap1/NRF2, 10 to 100 nM.

Take `CCCC[C@@H]1CCCN1C(=O)[C@H]1CCC[C@@H](c2cccc(-n3ncc(C(=O)O)c3C3CC3)c2)C1` [Example 17f, 1-{3-[(1R,3S)-3-[(2R)-2-Butylpyrrolidine-1-carbonyl]cyclohexyl]phenyl}-5-cyclopropyl-1H-pyrazole-4-carboxylic Acid]: the IC50 was less than 10 nM against NRF2/Keap1 and 10 to 100 nM at Keap1/NRF2.

Take `O=C(O)c1cnn(-c2cccc(C3=CC(C(=O)N4CCCCCC4)CCC3)c2)c1C1CC1` (stereo not drawn) [Example 19, 1-(5′-(Azepane-1-carbonyl)-2′,3′,4′,5′-tetrahydro-[1,1′-biphenyl]-3-yl)-5-cyclopropyl-1H-pyrazole-4-carboxylic Acid]: the half-inhibitory concentration (IC50) against NRF2/Keap1 and against Keap1/NRF2 was 100 to 1000 nM each time.

With `CCCCC1CCc2cnn([C@@H]3CCC[C@@H](c4cccc(-n5ncc(C(=O)O)c5C5CC5)c4)C3)c21` (stereo partly drawn) [Example 38, 1-(3-((1,3-trans)-3-(6-Butyl-5,6-dihydrocyclopenta[c]pyrazol-1(4H)-yl)cyclohexyl)phenyl)-5-cyclopropyl-1H-pyrazole-4-carboxylic Acid], the half-maximal inhibitory concentration (IC50) is 10000 to 100000 nM on NRF2/Keap1 and 1000 to 10000 nM on Keap1/NRF2.

As for `Cn1cc(C2CC2c2c(C(=O)O)cnn2-c2cccc([C@@H]3CCC[C@H](n4ncc5c4C(C)(C)CC5)C3)c2)nn1` (stereo partly drawn) [Example 39, 1-(3-((1R,3S)-3-(6,6-Dimethyl-5,6-dihydrocyclopenta[c]pyrazol-1(4H)-yl)cyclohexyl)phenyl)-5-(2-(1-methyl-1H-1,2,3-triazol-4-yl)cyclopropyl)-1H-pyrazole-4-carboxylic Acid], the IC50 at NRF2/Keap1 is less than 10 nM; on Keap1/NRF2 it was 10 to 100 nM.

Regarding `Cn1cc(C2CC2c2c(C(=O)O)cnn2-c2cccc([C@H]3CCC[C@H](n4ncc5c4C(C)(C)CC5)C3)c2)nn1` (stereo partly drawn) [Example 40, 1-(3-((1,3-trans)-3-(6,6-Dimethyl-5,6-dihydrocyclopenta[c]pyrazol-1(4H)-yl)cyclohexyl)phenyl)-5-(2-(1-methyl-1H-1,2,3-triazol-4-yl)cyclopropyl)-1H-pyrazole-4-carboxylic Acid], the concentration for half-maximal inhibition (IC50) against NRF2/Keap1 and against Keap1/NRF2 was 10 to 100 nM throughout.

Take `CCCCC1CCCC1N(C)C(=O)C1CCCC(c2cccc(-n3ncc(C(=O)O)c3C3CC3)c2)C1` (stereo not drawn) [Example 41, 1-(3-(3-((2-Butylcyclopentyl)(methyl)carbamoyl)cyclohexyl)phenyl)-5-cyclopropyl-1H-pyrazole-4-carboxylic Acid]: the IC50 against NRF2/Keap1 and at Keap1/NRF2 was 100 to 1000 nM throughout.

`CCCCC1CCCN1C(=O)C1CCCC(c2cccc(-n3ncc(C(=O)O)c3C3CC3c3cn(C)nn3)c2)C1` (stereo not drawn) [Example 42, 1-(3-(3-(2-Butylpyrrolidine-1-carbonyl)cyclohexyl)phenyl)-5-(2-(1-methyl-1H-1,2,3-triazol-4-yl)cyclopropyl)-1H-pyrazole-4-carboxylic Acid]: the IC50 was less than 10 nM on NRF2/Keap1 and 10 to 100 nM against Keap1/NRF2.
